This note sets out measurements from patent publication US7235548B2, “Compounds and their use as positive AMPA receptor modulators” (NeuroSearch A/S, priority 1998, dated 2007).

Experiment [1] concerns the target ionotropic quisqualate (AMPA) receptors. The experiment in a line: In vitro inhibition of 3H-AMPA binding. The conditions noted are these: 5 nM 3H-AMPA, rat cerebral cortex membranes, 30 min at 2° C.; read-out: IC50 (concentration of the test substance which inhibits the specific binding of 3H-AMPA by 50%). From the text: L-glutamate (GLU) is the major excitatory neurotransmitter in the mammalian central nervous system. From electrophysiological- and binding studies, there appear to be at least three subtypes of GLU receptors, tentatively named N-methyl-D-aspartate (NMDA)-, quisqualate- and kainate receptors. GLU receptor subtypes sensitive to quisqualate and kainate as a group are often referred to as non-NMDA receptors. Receptor binding studies using the labelled agonists ^3H-AMPA (α-amino-3-hydroxy-5-methyl-4-isoxazolepropionic acid) (for quisqualate receptors) and ^3H-kainate (for kainate receptors) have shown different antagonist selectivities and regional distribution. AMPA has been known for several years to be a potent and selective agonist at the traditionally named quisqualate receptors. Activation of quisqualate receptors by AMPA is associated with Na^+ influx and K^+ efflux leading to depolarization.
The non-NMDA receptors have recently been reclassified to include the quisqualate activated metabotropic receptor type, linked to the inositol triphosphate and diacylglycerate metabolism. […] Selective activation of the metabotropic type has been claimed for trans-ACPD. Recently, the potent and competitive non-NMDA receptor antagonists CNQX and NBQX have been described, and CNQX have been reported not to block the effect of quisqualate at the metabotropic receptor subtype. ^3H-AMPA is a selective radioligand for labelling the ionotropic quisqualate (AMPA) receptors.
Preparations are performed at 0–4° C. unless otherwise indicated. Cerebral cortex from male Wistar rats (150–200 g) is homogenized for 5–10 sec in 20 ml Tris-HCl (30 mM, pH 7.4) using an Ultra-Turrax homogenizer. The suspension is centrifuged at 27,000×g for 15 min and the pellet is washed three times with buffer (centrifuged at 27,000×g for 10 min). The washed pellet is homogenized in 20 ml of buffer and incubated on a water bath (37° C.) for 30 min to remove endogenous glutamate and then centrifuged for 10 min at 27,000×g. The pellet is then homogenized in buffer and centrifuged at for 10 min at 27,000×g. The final pellet is resuspended in 30 ml buffer and the preparation is frozen and stored at −20° C.
The membrane preparation is thawed and centrifuged at 2° C. for 10 min at 27,000×g for 10 min. The pellet is washed twice with 20 ml 30 mM Tris-HCl containing 2.5 mM CaCl2, pH 7.4 using an Ultra-Turrax homogenizer and centrifuged for 10 min at 27,000×g. The final pellet is resuspended in 30 mM Tris-HCl containing 2.5 mM CaCl2 and 100 mM KSCN, pH 7.4 (100 ml per g of original tissue) and used for binding assays. Aliquots of 0.5 (0.2) ml are added to 25 (20) μl of test solution and 25(20) μl of ^3H-AMPA (5 nM, final concentration), mixed and incubated for 30 min at 2° C. Non-specific binding is determined using L-glutamate (0.6 mM, final concentration). After incubation the 550 μl samples are added 5 ml of ice-cold buffer and poured directly onto Whatman GF/C glass fibre filters under suction and immediately washed with 5 ml of ice-cold buffer. The 240 μl samples are filtered over glass fibre filter using a Skatron cell harvrester. The filters are washed with 3 ml ice-cold buffer. The amount of radioactivity on the filters is determined by conventional liquid scintillation counting. Specific binding is total binding minus non-specific binding.
The test value will be given as the IC50 (the concentration (μM) of the test substance which inhibits the specific binding of ^3H-AMPA by 50%)

Experiment [2] deals with AMPA induced [3H]GABA release from cultured cortical neurons. The experiment in a line: Potentiation of AMPA induced [3H]GABA release from cultured cortical neurons. Format: cell-based, mouse. The conditions noted are these: 5 μM AMPA; expressed relative to potentiation induced by 30 μM cyclothiazide; FIGS. 1 and 2. How it is done:
Neurons which express receptors for excitatory amino acids can be depolarized by such compounds and this depolariztion will ultimately lead to a release of transmitter substance from the neurons. Cultured neurons obtained from 16-day-old mouse embryo cortex are mainly GABAergic and express all types of excitatory amino acid receptors. This means that they can be stimulated by high potassium (55 mM) or by the excitatory amino acids NMDA (20 μM), AMPA (5 μM) and kainate (5 μM) to release their neurotransmitter GABA.
^3H-GABA may be used to label the GABA transmitter pool in the neurons and the release of ^3H-GABA from the neurons may be used as a simple functional model for studies of the effects of excitatory amino acid receptor agonists, antagonists, and modulators.
Cerebral cortices of 15–16 day-old NMRI mouse embryos are chopped in 0.4×0.4 mm cubes and the tissue is dissociated by mild trypsinization (0.1% (wt/vol) trypsin, 37° C., 10 min). Subsequently the cell suspension (3 mill/ml) is inoculated into poly-L-lysine-coated 30 mm Petri dishes (3 ml/dish) containing a slightly modified DMEM (24.5 mM KCl) supplemented with p-aminobenzoate (7 μM), insulin (100 mU/L) and 10% (vol/vol) horse serum. Cells are maintained in culture for 5–7 days with the addition of the antimitotic agent cytosine arbinoside (5 μM) from day 2 in vitro to prevent glial proliferation. […]

Consider `CN1CCN(S(=O)(=O)c2ccc3c(c2)S(=O)(=O)NC(C2CCCCC2)N3)CC1` (stereo not drawn) [Compound 61, 3-Cyclohexyl-7-(4′-methylpiperazino)sulfonyl-1,2,3,4-tetrahydro-1,2,4-benzothiadiazine-1,1-dioxide], for which, in experiment [1], the IC50 is 8.5 µM. As for `O=S1(=O)NC(C2CCCCC2)Nc2ccc(S(=O)(=O)N3CCOCC3)cc21` (stereo not drawn) [Compound 63, 3-Cyclohexyl-7-morpholinosulfonyl-1,2,3,4-tetrahydro-1,2,4-benzothiadiazine-1,1-dioxide], in experiment [1], the IC50 was 6 µM. For `Cc1cc2c(cc1S(=O)(=O)N1CCCCC1)S(=O)(=O)NC(C1CCCC1)N2` (stereo not drawn) [Compound 114, 3-Cyclopentyl-6-methyl-7-piperidinosulfonyl-1,2,3,4-tetrahydro-1,2,4-benzothia-diazine-1,1-dioxide], the “potentiation of AMPA induced [3H]GABA release” value in experiment [2] is “potentiation”. Further, the IC50 in experiment [1] amounted to 33 µM. For `Cc1cc2c(cc1S(=O)(=O)N1CCOCC1)S(=O)(=O)NC(C1CCCCC1)N2` (stereo not drawn) [Compound 115, 3-Cyclohexyl-6-methyl-7-morpholinosulfonyl-1,2,3,4-tetrahydro-1,2,4-benzothiadiazine-1,1-dioxide], the “potentiation of AMPA induced [3H]GABA release” value in experiment [2] is “potentiation”. For the same molecule, in experiment [1], the IC50 was 7 µM.
